According to patent publication US10561761B2, “Polymer metal-organic framework composites” (Northwestern University, priority 2014, dated 2020):
Like-named read-outs stand apart in the source and are kept apart here.

Columns and labels:
[1] = test system: HEKa cells
Experimental: (§2) HEKa and HDF cells seeded in 96-well plates (5×10^3 cells/well) were incubated with a series of concentrations of PPCN, CuSO4, PCuSO4, CMOF or PCMOF for 48 h. Then, MTT solution was added to each well to a concentration of 0.5 mg/mL and incubated for an additional 4 h. After that, the medium was removed and 100 μL of dimethyl sulfoxide was added to dissolve crystals formed by living cells. Absorbance at 570 nm was measured using a microplate reader. Cell viability was expressed as a percentage of the absorbance to that of the control experiment without treatment.

[2] = test system: HDF cells
Experimental: as §2

[3] = ABTS free radical scavenging assay; assay type: biochemical; conditions: within 48 hrs, 37° C.
Experimental: The ability of PCMOF to scavenge the free radical cation, 2,2′-azino-bis(3-ethylbenzthiazoline-6-sulfonic acid) (ABTS) was assessed. […] A stock solution of 7 mM ABTS and 2.45 mM sodium persulfate in MQ water was prepared and left overnight in the dark at room temperature, after which the solution was sequentially filtered with 0.45 μm filter. […] At each time point, ABTS solution was sampled, diluted with MQ water 1:8 and the absorbance measured at 734 nm. All measurements were performed in triplicate. The antiradical activity was measured as % inhibition of free radicals by measuring the decrease in absorbance compared to PBS solutions at different time points.

[4] = test system: HEKa cells; test: Scratch assay (cell migration), HEKa; assay type: cell-based, human; conditions: Cu 1×10^−3 mmol/L
Experimental: (§1) HEKa and HDF cells were seeded in 24-well plates (2×10^4 cells/well) and allowed to form a confluent monolayer. After starvation with FBS-free medium for 24 h, the cell monolayer was scratched in a straightline using 200 μL pipette tip to mimic an incisional wound. […] At desired time intervals, cells were photographed and cell migration rate was calculated using the formula shown as below: […]

[5] = test system: HDF cells; test: Scratch assay (cell migration), HDF; assay type: cell-based, human; conditions: 54 hrs, Cu 1×10^−3 mmol/L
Experimental: as §1

[6] = test system: HDF cells; test: MTT cytotoxicity assay, HDF; conditions: 48 h
Experimental: as §2

[7] = test system: HEKa cells; test: MTT cytotoxicity assay, HEKa; conditions: 48 h
Experimental: as §2

[8] = test system: HDF cells; test: Apoptosis assay (Annexin V/PI flow cytometry), HDF; conditions: Cu 0.5 mmol/L, 24 h
Experimental: (§3) HEKa and HDF cells seeded in 12-well plates (4×10^4 cells/well) were incubated with PPCN, CuSO4, PCuSO4, CMOF or PCMOF (Cu: 0.5 mmol/L) for 24 h. Cells were harvested, washed twice with ice-cold PBS, stained with Alexa Fluor 488 conjugated Annexin V and PI for 15 min at room temperature in dark, and then analyzed by flow cytometry.

[9] = test system: HEKa cells; test: Apoptosis assay (Annexin V/PI flow cytometry), HEKa; conditions: Cu 0.5 mmol/L, 24 h
Experimental: as §3

Compound	cytotoxicity (MTT) [1]	cytotoxicity (MTT) [2]	ABTS radicals scavenged [3]	effect on wound closure versus blank ([4]; 8 h)	wound closure rate ([4]; 30 hrs) [%]	wound closure rate [5] [%]	cytotoxicity (MTT) [6]	cytotoxicity (MTT) [7]	cell apoptosis [8] [%]	cell apoptosis [9] [%]
poly(polyethyleneglycol citrate-co-N-isopropylacrylamide) [PPCN]	not toxic	not toxic	–	–	–	–	–	–	–	–
O=S(=O)([O-])[O-].[Cu+2] [CuSO4, Copper sulfate]	–	–	didn't present a free radical scavenging effect	significant increase	56.73	34.15	increased with increasing concentrations	increased with increasing concentrations	97.84	78.79
